pIC50: −log10 of the molar value.
Columns and labels:
MCF7 = assay: Antiproliferative activity against human MCF7 cells measured after 48 hrs by SRB assay; assay type: functional, cell-based
HepG2 [1] = assay: Antiproliferative activity against human HepG2 cells measured after 48 hrs by SRB assay; assay type: functional, cell-based
Bel-7402 = assay: Antiproliferative activity against human Bel-7402 cells measured after 48 hrs by SRB assay; assay type: functional, cell-based
[2] = Aqueous solubility of compound in water at pH 7.4 incubated at 20 degC by HPLC-UV analysis; assay type: physicochemical
HepG2 [3] = assay: Antitumor activity against human HepG2 cells xenografted in BALB/c nude mouse assessed as reduction in tumor volume administered for 29 days by caliper method; assay type: functional, cell-based; conditions: time 29.0 day
[4] = Acute toxicity in Kunming mouse assessed as survival at 50 mg/kg, iv measured for 7 days relative to control; assay type: organism-based; conditions: in vivo, time 7 day
[5] = Acute toxicity in iv dosed Kunming mouse measured for 7 days; assay type: organism-based; conditions: in vivo, time 7 day
[6] = Toxicity in human HepG2 cells xenografted BALB/c nude mouse assessed as change in tumor weight at 10 mg/kg, iv qod for 14 to 29 days (reference value: 4.52 g); assay type: organism-based; conditions: in vivo, time 14-29 day
[7] = Acute toxicity in Kunming mouse assessed as survival at 25 mg/kg, iv measured for 7 days relative to control; assay type: organism-based; conditions: in vivo, time 7 day
HepG2 [8] = assay: Antitumor activity against human HepG2 cells xenografted in BALB/c nude mouse assessed as tumor volume at 10 mg/kg, iv qod for 14 to 29 days measured on day 29 (reference value: 2,838.93 +/- 737.40); assay type: functional; conditions: time 14-29 day
[9] = Acute toxicity in Kunming mouse assessed as survival at 200 mg/kg, iv measured for 7 days relative to control; assay type: organism-based; conditions: in vivo, time 7 day
HepG2 [10] = assay: Antitumor activity against human HepG2 cells xenografted in BALB/c nude mouse assessed as tumor volume at 10 mg/kg, iv qod for 14 to 29 days measured on day 1 (reference value: 154.04 +/- 3120); assay type: functional; conditions: time 14-29 day
[11] = Acute toxicity in Kunming mouse assessed as survival at 100 mg/kg, iv measured for 7 days relative to control; assay type: organism-based; conditions: in vivo, time 7 day
HepG2 [12] = assay: Antitumor activity against human HepG2 cells xenografted in BALB/c nude mouse assessed as tumor growth inhibition at 10 mg/kg, iv qod for 14 to 29 days relative to control; assay type: functional; conditions: time 14-29 day, read-out: TGI

Structure (SMILES) | pIC50 (MCF7; Homo sapiens, MCF7, 48 h) | pIC50 (HepG2 [1]; Homo sapiens, HepG2, 48 h) | pIC50 (Bel-7402; Homo sapiens, Bel-7402, 48 h) | solubility [2] [µg/mL] | also measured
COc1ccc(N(CCOP(=O)(O)O)S(=O)(=O)c2ccc3c(c2)c2ccccc2n3C)c(OC)n1 [listing 1 of 2 here] |  |  |  |  | pIC50 (MCF7; mcf7): 6.00; pIC50 (HepG2 [1]; hepg2): 6.13; pIC50 (Bel-7402; bel-7402): 5.94
COc1ccc(N(CCOC(N)=O)S(=O)(=O)c2ccc3c(c2)c2ccccc2n3C)c(OC)n1.Cl |  |  |  | 470 | 
COc1ccc(N(CCOP(=O)(O)O)S(=O)(=O)c2ccc3c(c2)c2ccccc2n3C)c(OC)n1 [listing 2 of 2 here] |  |  |  |  | Activity (HepG2 [3]): Dose-dependent effect
COc1ccc(NS(=O)(=O)c2ccc3c(c2)c2ccc(O)cc2n3C)c(OC)n1.Cl |  |  |  | 1.5 | 
COc1ccc(N(CCN2CCC(N3CCCC3)CC2)S(=O)(=O)c2ccc3c(c2)c2ccccc2n3C)c(OC)n1 | 4.68 | 5.47 | 5.11 |  | survival at 168 h [4]: 83.3%; LD50 at 168 h [5]: 70.7 mg/kg; Activity [6]: 1.72 g; survival at 168 h [7]: 100%; Activity (HepG2 [8]): 1237.34 mm3; survival at 168 h [9]: 0%; Activity (HepG2 [10]): 85.64 mm3; survival at 168 h [11]: 16.7%; inhibition in vivo at 10 mg/kg (HepG2 [12]): 51.5%
COc1ccc(N(CCCN(C)C)S(=O)(=O)c2ccc3c(c2)c2ccccc2n3C)c(OC)n1.Cl |  |  |  | 20500 | 
COc1ccc(N(CCOC(N)=O)S(=O)(=O)c2ccc3c(c2)c2ccccc2n3C)c(OC)n1 |  | 5.29 | < 4.60 |  | 
COc1ccc(N(CCCN2CCC(N3CCCC3)CC2)S(=O)(=O)c2ccc3c(c2)c2ccccc2n3C)c(OC)n1 | 4.80 | 5.41 | 5.20 |  | 
COc1ccc(N(CCOP(=O)([O-])[O-])S(=O)(=O)c2ccc3c(c2)c2ccccc2n3C)c(OC)n1.Cl.[Na+].[Na+] |  |  |  | 22400 | 
COc1ccc(N(CCOC(=O)CN2CCN(C)CC2)S(=O)(=O)c2ccc3c(c2)c2ccccc2n3C)c(OC)n1.Cl |  |  |  | > 30000 | 
COc1ccc(/C=C\c2cc(OC)c(OC)c(OC)c2)cc1O [COMBRETASTATIN A4] | 8.52 | 8.70 | 7.08 |  | 
COc1ccc(N(CCCN(C)C)S(=O)(=O)c2ccc3c(c2)c2ccccc2n3C)c(OC)n1 | 5.15 | 5.56 | 4.96 |  | 
COc1ccc(N(CC(N)=O)S(=O)(=O)c2ccc3c(c2)c2ccccc2n3C)c(OC)n1.Cl |  |  |  | 20 | 
COc1ccc(N(CCCN2CCC(N3CCCC3)CC2)S(=O)(=O)c2ccc3c(c2)c2ccccc2n3C)c(OC)n1.Cl |  |  |  | > 30000 | 
COc1ccc(N(C(=O)CCN2CCN(C)CC2)S(=O)(=O)c2ccc3c(c2)c2ccccc2n3C)c(OC)n1 | 6.77 | 7.15 | 6.70 |  | 

Now from value to molecule, other results behind:

pIC50 (MCF7; Homo sapiens, MCF7, 48 h) | pIC50 (HepG2 [1]; Homo sapiens, HepG2, 48 h) | pIC50 (Bel-7402; Homo sapiens, Bel-7402, 48 h) | solubility [2] [µg/mL] | Structure (SMILES) | also measured
5.34 | 5.87 | 5.39 |  | COc1ccc(N(CCN2CCSCC2)S(=O)(=O)c2ccc3c(c2)c2ccccc2n3C)c(OC)n1 | 
 |  |  | 270 | COc1ccc(N(CCN2CCSCC2)S(=O)(=O)c2ccc3c(c2)c2ccccc2n3C)c(OC)n1.Cl | 
4.84 | 5.55 | 5.37 |  | COc1ccc(N(CCN2CCC3(CCN(C)CC3)C2)S(=O)(=O)c2ccc3c(c2)c2ccccc2n3C)c(OC)n1 | 
 |  |  | 21500 | COc1ccc(N(CCn2ccnc2)S(=O)(=O)c2ccc3c(c2)c2ccccc2n3C)c(OC)n1.Cl | 
5.24 | 5.50 | 5.30 |  | COc1ccc(N(CCN2CCCC2)S(=O)(=O)c2ccc3c(c2)c2ccccc2n3C)c(OC)n1 | 
 |  |  | 580 | COc1ccc(N(CCN2CCCCC2)S(=O)(=O)c2ccc3c(c2)c2ccccc2n3C)c(OC)n1.Cl | 
5.22 | 5.37 | 5.31 |  | COc1ccc(N(CCOC(=O)CN2CCN(C)CC2)S(=O)(=O)c2ccc3c(c2)c2ccccc2n3C)c(OC)n1 | 
4.68 | 5.25 | 4.93 |  | COc1ccc(N(CCCN2CCN(C)CC2)S(=O)(=O)c2ccc3c(c2)c2ccccc2n3C)c(OC)n1 | 
5.33 | 5.97 | 5.57 |  | COc1ccc(N(CCN2CCOCC2)S(=O)(=O)c2ccc3c(c2)c2ccccc2n3C)c(OC)n1 | 
5.84 | 5.39 | 5.38 |  | COc1ccc(N(CCO)S(=O)(=O)c2ccc3c(c2)c2ccccc2n3C)c(OC)n1 | 
5.34 | 5.90 | 5.59 |  | COc1ccc(N(CCn2ccnc2)S(=O)(=O)c2ccc3c(c2)c2ccccc2n3C)c(OC)n1 | 
